Measured values published in ChEMBL document CHEMBL5625269, “Design, synthesis, and biological evaluation of novel benzo[6,7]indolo[3,4-c]isoquinolines as anticancer agents with topoisomerase I inhibition” (2024).
Activity calls are given as the source filed them. The calls are words filed in the database; no cut-off is given here.

How the values were obtained:
LOX IMVI = experiment: Growth inhibition of human LOX IMVI cells assessed as reduction in cell viability; format: functional
A549 = experiment: Growth inhibition of human A549 cells assessed as reduction in cell viability; format: functional
SK-OV-3 = experiment: Growth inhibition of human SK-OV-3 cells assessed as reduction in cell viability; format: functional
MKN-28 = experiment: Growth inhibition of human MKN-28 cells assessed as reduction in cell viability; format: functional
MCF7 = experiment: Growth inhibition of human MCF7 cells assessed as reduction in cell viability; format: functional
DU-145 = experiment: Growth inhibition of human DU-145 cells assessed as reduction in cell viability; format: functional
U-251 = experiment: Growth inhibition of human U-251 cells assessed as reduction in cell viability; format: functional
HCT-116 = experiment: Growth inhibition of human HCT-116 cells assessed as reduction in cell viability; format: functional
ACHN = experiment: Growth inhibition of human ACHN cells assessed as reduction in cell viability; format: functional
[1] = target: T1, DNA topoisomerase 1 (Homo sapiens) (UniProt P11387); experiment: Inhibition of human DNA topoisomerase 1 assessed as reduction in pBR322 DNA relaxation at 20 to 100 uM in presence of ethidium bromide by agarose gel electrophoresis method; conditions: dose 20-100 µM
T1 sequence (whole entry): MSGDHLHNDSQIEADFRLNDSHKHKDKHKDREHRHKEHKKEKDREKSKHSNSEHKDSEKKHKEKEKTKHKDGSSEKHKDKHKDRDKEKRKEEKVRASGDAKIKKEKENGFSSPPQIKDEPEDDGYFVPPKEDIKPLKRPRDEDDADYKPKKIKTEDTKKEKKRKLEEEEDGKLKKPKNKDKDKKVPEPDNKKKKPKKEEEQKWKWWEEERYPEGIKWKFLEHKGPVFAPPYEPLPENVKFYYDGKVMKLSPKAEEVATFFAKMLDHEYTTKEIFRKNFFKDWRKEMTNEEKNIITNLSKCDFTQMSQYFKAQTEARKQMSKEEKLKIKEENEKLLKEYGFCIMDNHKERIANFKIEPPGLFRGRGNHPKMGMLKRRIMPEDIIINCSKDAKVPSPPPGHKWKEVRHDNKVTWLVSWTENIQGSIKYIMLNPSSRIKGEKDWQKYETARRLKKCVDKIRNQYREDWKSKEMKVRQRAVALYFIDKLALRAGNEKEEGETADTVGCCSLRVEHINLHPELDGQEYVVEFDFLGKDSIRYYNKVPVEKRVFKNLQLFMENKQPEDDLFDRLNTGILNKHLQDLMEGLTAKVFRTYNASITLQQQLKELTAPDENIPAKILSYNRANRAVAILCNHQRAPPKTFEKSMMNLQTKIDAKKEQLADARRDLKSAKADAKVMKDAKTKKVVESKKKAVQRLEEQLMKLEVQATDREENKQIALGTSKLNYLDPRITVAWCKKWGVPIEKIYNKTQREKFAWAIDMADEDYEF

[2] = target: T1, DNA topoisomerase 1 (Homo sapiens); experiment: Inhibition of human DNA topoisomerase 1 assessed as reduction in pBR322 DNA relaxation at 20 to 100 uM by agarose gel electrophoresis method; conditions: dose 20-100 µM

Compound	GI50 (LOX IMVI)	GI50 (A549)	GI50 (SK-OV-3)	GI50 (MKN-28)	GI50 (MCF7)	GI50 (DU-145)	GI50 (U-251)	GI50 (HCT-116)	GI50 (ACHN)	inhibition [1]	inhibition [2]
COc1cc2c(cnc3c4ccc5cc(O)ccc5c4n(CCCn4ccnc4)c23)cc1O	44 nM	15800 nM	9550 nM	1950 nM	40 nM	141 nM	38 nM	324 nM	331 nM	inactive	
COc1cc2c(cnc3c4ccc5cc(O)ccc5c4n(CCN(C)C)c23)cc1O	< 10 nM	380 nM	380 nM	912 nM	13 nM	< 10 nM	< 10 nM	65 nM	20 nM	Active	Active
COc1cc2c(cnc3c4ccc5cc(O)ccc5c4n(CCCN4CCC(N5CCCCC5)CC4)c23)cc1O	363 nM	1550 nM	1820 nM	562 nM	263 nM	759 nM	708 nM	309 nM	1100 nM		Active
COc1cc2c(cnc3c4ccc5cc(O)ccc5c4n(CCCCl)c23)cc1O	25 nM	447 nM	537 nM	316 nM	105 nM	32 nM	26 nM	115 nM	32 nM		
COc1cc2c(cnc3c4ccc5cc(O)ccc5c4n(CCCN4CCOCC4)c23)cc1O	< 10 nM	49 nM	18 nM	19 nM	< 10 nM	< 10 nM	< 10 nM	< 10 nM	< 10 nM	Active	Active
COc1cc2c(ccc3c4c(=O)oc5cc(O)c(OC)cc5c4n(C)c23)cc1O	2.6 nM	1.8 nM	9.4 nM	33 nM	9.6 nM	2.5 nM	1.3 nM	8.8 nM	< 1 nM		
COc1cc2c(cc1O)c[n+]([O-])c1c3ccc4cc(O)ccc4c3n(C)c21	50 nM	3090 nM	1440 nM	3550 nM	66 nM	62 nM	145 nM	209 nM	37 nM	Active	
COc1cc2c(cnc3c4ccc5cc(O)ccc5c4n(C)c23)cc1O	178 nM	631 nM	759 nM	437 nM	437 nM	282 nM	123 nM	200 nM	257 nM		
